The text below walks through data of patent US8859615B2, “Compounds, compositions and methods for reducing toxicity and treating or preventing diseases” (priority 2008, dated 2014).

Where “and” joins values, the source holds several entries; their conditions need not be identical. Equal values may be shown once.

This assay deals with human colon carcinoma HCT-116 xenografts. Description: Compound D with Iso-Oxazole-Fludelone or Isodehydelone in nude mice bearing HCT-116 xenografts. The note with it: mouse, in vivo.

Turning to “iso-oxazole-fludelone (17-isooxazole-fludelone) [Iso-Flu]”, the “complete remission (CR)” value was 6/6 and 1/6.
